Results published in paper PMC10247784, “Physiological activation of human and mouse bitter taste receptors by bile acids” (Communications Biology, 2023).
Several values for one entry are separate records, joined by “and”; a condition that tells them apart may be missing. Equal entries are not always repeated.

Target: T1, human TAS2R1 (Homo sapiens, UniProt Q9NYW7)
T1 construct: expressed in transfected cells; host or cells: HEK293T-Gα16gust44
T1 sequence (Q9NYW7 1-299): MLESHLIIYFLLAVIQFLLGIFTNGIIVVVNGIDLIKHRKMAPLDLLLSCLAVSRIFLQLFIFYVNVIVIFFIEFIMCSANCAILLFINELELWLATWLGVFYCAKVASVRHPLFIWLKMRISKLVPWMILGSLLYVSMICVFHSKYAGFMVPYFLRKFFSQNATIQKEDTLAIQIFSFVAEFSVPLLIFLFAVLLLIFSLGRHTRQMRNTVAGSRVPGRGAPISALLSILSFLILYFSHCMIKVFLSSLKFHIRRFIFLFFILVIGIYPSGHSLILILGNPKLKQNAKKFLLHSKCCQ
Test: Calcium imaging assay (FLIPR), HEK293T-Gα16gust44 cells transfected with human TAS2R1
Type: cell-based
In short: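 Bile acids from DMSO stocks are applied to dye-loaded cells one day after transient receptor transfection, and calcium-dependent fluorescence is recorded. Maximum signal is standardized to basal and normalized to buffer-only wells, with empty-vector signal subtracted.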

Efficacy = maximal amplitude (ΔF/F) (TAS2R1, bile acids, mean): 0.1118
Efficacy (maximal amplitude ΔF/F), individual data points (TAS2R1, bile acids, single replicates, listed as CDCA): 0.09822 and 0.1595 and 0.07759
RLU (Time 0 s): 0 RLU
RLU (Time 2.015 s): 19.0362 RLU
RLU (Time 4.015 s): 1.217 RLU
RLU (Time 6.015 s): -17.015 RLU
RLU (Time 8.015 s): -2.669 RLU
RLU (Time 12.015 s): 20.3444 RLU
RLU (Time 14.015 s): 20.4897 RLU
RLU (Time 16.015 s): 20.4897 RLU
RLU (Time 18.015 s): 0.1896 RLU
RLU (Time 18.796 s): 35.4441 RLU
RLU (Time 20.796 s): 34.972 RLU
RLU (Time 22.796 s): 66.6032 RLU
RLU (Time 24.796 s): 169.759 RLU
RLU (Time 26.796 s): 276.637 RLU
RLU (Time 28.796 s): 430.728 RLU
RLU (Time 30.796 s): 521.85 RLU
RLU (Time 32.796 s): 667.246 RLU
RLU (Time 34.796 s): 744.49 RLU
RLU (Time 36.796 s): 777.672 RLU
RLU (Time 38.796 s): 835.786 RLU
RLU (Time 40.796 s): 853.586 RLU
RLU (Time 42.796 s): 876.11 RLU
RLU (Time 44.796 s): 905.241 RLU
RLU (Time 46.796 s): 902.191 RLU
RLU (Time 48.796 s): 919.121 RLU
RLU (Time 50.796 s): 927.172 RLU
RLU (Time 52.796 s): 893.665 RLU
RLU (Time 54.796 s): 936.083 RLU
RLU (Time 56.796 s): 944.124 RLU
RLU (Time 58.796 s): 915.714 RLU
RLU (Time 60.796 s): 876.524 RLU
RLU (Time 62.796 s): 877.876 RLU
RLU (Time 64.796 s): 906.896 RLU
RLU (Time 66.796 s): 861.974 RLU
RLU (Time 68.796 s): 872.092 RLU
RLU (Time 70.796 s): 871.317 RLU
RLU (Time 72.796 s): 854.469 RLU
RLU (Time 74.796 s): 844.188 RLU
RLU (Time 76.796 s): 841.862 RLU
RLU (Time 78.796 s): 815.084 RLU
RLU (Time 80.796 s): 833.544 RLU
RLU (Time 82.796 s): 792.555 RLU
RLU (Time 84.796 s): 783.457 RLU
RLU (Time 86.796 s): 757.585 RLU
RLU (Time 88.796 s): 790.002 RLU
RLU (Time 90.796 s): 748.006 RLU
RLU (Time 92.796 s): 752.186 RLU
RLU (Time 94.796 s): 735.827 RLU
RLU (Time 96.796 s): 731.254 RLU
RLU (Time 98.796 s): 711.692 RLU
RLU (Time 100.796 s): 698.367 RLU
RLU (Time 102.796 s): 713.847 RLU
RLU (Time 104.796 s): 673.465 RLU
RLU (Time 106.796 s): 693.426 RLU
RLU (Time 108.796 s): 681.535 RLU
RLU (Time 110.796 s): 647.896 RLU
RLU (Time 112.796 s): 643.349 RLU
RLU (Time 114.796 s): 607.76 RLU
RLU (Time 116.796 s): 609.573 RLU
RLU (Time 118.796 s): 614.947 RLU
RLU (Time 120.796 s): 582.22 RLU
RLU (Time 122.796 s): 589.185 RLU
RLU (Time 124.796 s): 584.345 RLU
RLU (Time 126.796 s): 601.503 RLU
RLU (Time 128.796 s): 551.854 RLU
RLU (Time 130.796 s): 581.558 RLU
RLU (Time 132.796 s): 570.089 RLU
RLU (Time 134.796 s): 541.966 RLU
RLU (Time 136.796 s): 537.391 RLU
RLU (Time 137.562 s): 528.381 RLU
RLU (Time 143.562 s): 528.401 RLU
RLU (Time 149.562 s): 492.752 RLU
RLU (Time 155.562 s): 464.959 RLU
RLU (Time 161.562 s): 428.355 RLU
RLU (Time 167.562 s): 423.067 RLU
RLU (Time 173.562 s): 376.724 RLU
RLU (Time 179.562 s): 392.276 RLU
RLU (Time 185.562 s): 341.893 RLU
RLU (Time 191.562 s): 346.95 RLU
RLU (Time 197.562 s): 320.481 RLU
RLU (Time 203.562 s): 327.574 RLU
RLU (Time 209.562 s): 318.301 RLU
RLU (Time 215.562 s): 277.825 RLU
RLU (Time 221.562 s): 283.821 RLU
RLU (Time 227.562 s): 172.224 RLU
RLU (Time 233.562 s): 155.786 RLU
RLU (Time 239.562 s): 141.722 RLU
RLU (Time 245.562 s): 124.55 RLU
RLU (Time 293.562 s): 126.733 RLU
RLU (Time 299.562 s): 134.725 RLU
RLU (calcium trace, sheet TAS2R1, Time 305.562 s): 138.341 RLU
RLU (calcium trace, sheet TAS2R1, Time 311.562 s): 138.414 RLU
RLU (calcium trace, sheet TAS2R1, Time 317.562 s): 144.044 RLU
RLU (calcium trace, sheet TAS2R1, Time 323.562 s): 138.244 RLU
RLU (calcium trace, sheet TAS2R1, Time 329.562 s): 121.3 RLU
RLU (calcium trace, sheet TAS2R1, Time 335.562 s): 104.786 RLU
RLU (calcium trace, sheet TAS2R1, Time 341.562 s): 124.793 RLU
RLU (calcium trace, sheet TAS2R1, Time 347.562 s): 124.739 RLU
RLU (calcium trace, sheet TAS2R1, Time 353.562 s): 136.304 RLU
RLU (calcium trace, sheet TAS2R1, Time 359.562 s): 146.172 RLU
Δ F/F (conc. 0,01 mM, TAS2R1): 0.1118
Δ F/F (conc. 0,00003 mM, TAS2R1): -0.002448
Δ F/F (conc. 0,0001 mM, TAS2R1): -0.01316
Δ F/F (conc. 0,0003 mM, TAS2R1): -0.003718
Δ F/F (conc. 0,001 mM, TAS2R1): 0.01001
Δ F/F (conc. 0,003 mM, TAS2R1): 0.03254
Activation threshold concentration TAS2R1 (lowest concentration with significantly increased fluorescence vs empty vector (p < 0.01)): 3 µM and 3.00 µM
Receptor response TAS2R1 (screening): activated
Compound: C[C@H](CCC(=O)O)[C@H]1CC[C@H]2[C@@H]3[C@H](O)C[C@@H]4C[C@H](O)CC[C@]4(C)[C@H]3CC[C@]12C [Chenodeoxycholic Acid, chenodeoxycholic acid]
